These results are taken from patent US20220323406A1, “METHODS AND COMPOSITIONS FOR DIFFERENTIATING STEM CELLS” (Massachusetts Institute of Technology, priority 2019, published 2022).

For assay [1], the system named is ENR+CD organoids (ISC to Paneth cell differentiation). Put plainly: Primary screen: basal (non-stimulated) lysozyme secretion LYZ.NS, 2.5-D 384-well ENR+CD organoid differentiation. Conditions: primary screen; for Z.LYZ.NS: standard z score. It counts as cell-based, mouse. An excerpt:
(§1) High-throughput screening.

Another assay relates to ENR+CD organoids. The assay is described as follows: Primary screen: ATP (CellTiter-Glo 3D, CTG) cell number/viability, 2.5-D 384-well ENR+CD organoids.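 As to all read-outs here: compounds given at plating and again on day 3 over a 6-day differentiation from ENR+CV stem-cell-enriched precursors, ATP measured on day 6, plate median as control.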 Conditions: primary screen; for Z.CTG: standard z score. For orientation: In ATP-based viability assays light output follows the ATP content of the culture.
In assay [2] the test system is ENR+CD organoids (ISC to Paneth cell differentiation). The assay is described as follows: Primary screen: CCh-stimulated lysozyme secretion LYZ.S, 2.5-D 384-well ENR+CD organoid differentiation. The class given is cell-based, mouse. Conditions: primary screen.
Source text: as §1

Where [3] appears, read: dose 0.08 uM, FC relative to plate median.
The mark [4] stands for this setting: dose 0.40 uM, FC relative to plate median.
Where [5] appears, read: dose 2.00 uM, FC relative to plate median.
Setting [6] is: dose 10.00 uM, FC relative to plate median.

As to `C[C@@H]1COCCN1c1cc(C2(S(C)(=O)=O)CC2)nc(-c2cccc3[nH]ccc23)n1` [AZ20], the Dose.FC.LYZ.NS in assay [1] (dose 0.08 uM) is 0.042 log2 fold change; in assay [1] (dose 0.40 uM), −0.140 log2 fold change; in assay [1] (dose 2.00 uM), −0.215 log2 fold change; in assay [1] (dose 10.00 uM) it was −0.261 log2 fold change. Further, the “Z.LYZ.NS (standard z score)” value in assay [1] (dose 0.08 uM) was 0.365; in assay [1] (dose 0.40 uM), −1.222; in assay [1] (dose 2.00 uM), −1.868; in assay [1] (dose 10.00 uM), −2.271. Moreover, the Dose.FC.CTG with ENR+CD organoids (dose 0.08 uM) is recorded as −0.210 log2 fold change; with ENR+CD organoids (dose 0.40 uM), −0.218 log2 fold change; with ENR+CD organoids (dose 2.00 uM), −1.054 log2 fold change; with ENR+CD organoids (dose 10.00 uM), −0.573 log2 fold change. Also, the “Z.CTG (standard z score)” value is reported as −0.500 in the assay on ENR+CD organoids (dose 0.08 uM), −0.521 in the assay with ENR+CD organoids (dose 0.40 uM), −2.519 in the assay with ENR+CD organoids (dose 2.00 uM) and −1.368 in the assay on ENR+CD organoids (dose 10.00 uM). Moreover, the Dose.FC.LYZ.S in assay [2] (dose 0.08 uM) is listed as −0.038 log2 fold change; in assay [2] (dose 0.40 uM), −0.236 log2 fold change; in assay [2] (dose 2.00 uM), −0.373 log2 fold change; in assay [2] (dose 10.00 uM), −0.329 log2 fold change.
With `Cn1c(N2CCCCS2(=O)=O)nc(C(=O)NCc2ccc(F)cc2)c(O)c1=O` [BMS-707035], the Dose.FC.LYZ.NS in assay [1] (dose 0.08 uM) worked out at 0.107 log2 fold change; in assay [1] (dose 0.40 uM), 0.135 log2 fold change; in assay [1] (dose 2.00 uM), 0.110 log2 fold change; in assay [1] (dose 10.00 uM), 0.070 log2 fold change. For the same molecule, the “Z.LYZ.NS (standard z score)” value in assay [1] (dose 0.08 uM) was found to be 0.933; in assay [1] (dose 0.40 uM), 1.174; in assay [1] (dose 2.00 uM), 0.955; in assay [1] (dose 10.00 uM), 0.613. The Dose.FC.CTG in the assay on ENR+CD organoids (dose 0.08 uM) worked out at 0.318 log2 fold change; in the assay with ENR+CD organoids (dose 0.40 uM), 0.238 log2 fold change; in the assay on ENR+CD organoids (dose 2.00 uM) it was 0.279 log2 fold change; in the assay on ENR+CD organoids (dose 10.00 uM), 0.138 log2 fold change. Besides, the Dose.FC.LYZ.S turned out to be 0.134 log2 fold change in assay [2] (dose 0.08 uM), 0.182 log2 fold change in assay [2] (dose 0.40 uM), 0.048 log2 fold change in assay [2] (dose 2.00 uM) and 0.050 log2 fold change in assay [2] (dose 10.00 uM).
For the molecule `C[C@@H](Oc1cc(-n2cnc3ccc(CN4CCN(C)CC4)cc32)sc1C(N)=O)c1ccccc1C(F)(F)F` [GSK461364], the “Dose.FC.LYZ.NS (log2 fold change)” value was 0.078 in assay [1] (dose 0.08 uM), −0.096 in assay [1] (dose 0.40 uM), −0.246 in assay [1] (dose 2.00 uM) and −0.287 in assay [1] (dose 10.00 uM). For the same molecule, the “Z.LYZ.NS (standard z score)” value in assay [1] (dose 0.08 uM) is on record as 0.682; in assay [1] (dose 0.40 uM) it was −0.834; in assay [1] (dose 2.00 uM), −2.138; in assay [1] (dose 10.00 uM) it was −2.498. In addition, the “Dose.FC.CTG (log2 fold change)” value is 0.160 in the assay on ENR+CD organoids (dose 0.08 uM), −0.154 in the assay on ENR+CD organoids (dose 0.40 uM), −0.628 with ENR+CD organoids (dose 2.00 uM) and −0.621 with ENR+CD organoids (dose 10.00 uM). For the same molecule, the “Z.CTG (standard z score)” value is 0.383 in the assay on ENR+CD organoids (dose 0.08 uM), −0.368 with ENR+CD organoids (dose 0.40 uM), −1.500 in the assay with ENR+CD organoids (dose 2.00 uM) and −1.484 in the assay on ENR+CD organoids (dose 10.00 uM). For the same molecule, the “Dose.FC.LYZ.S (log2 fold change)” value is on record as 0.112 in assay [2] (dose 0.08 uM), −0.093 in assay [2] (dose 0.40 uM), −0.352 in assay [2] (dose 2.00 uM) and −0.390 in assay [2] (dose 10.00 uM).
In the case of `COc1nc(C)cnc1NS(=O)(=O)c1cccnc1-c1ccc(-c2nnco2)cc1` [Zibotentan (ZD4054)], the Dose.FC.LYZ.NS in assay [1] (dose 0.08 uM) is 0.094 log2 fold change; in assay [1] (dose 0.40 uM) it was 0.054 log2 fold change; in assay [1] (dose 2.00 uM), −0.003 log2 fold change; in assay [1] (dose 10.00 uM) it was 0.101 log2 fold change. In addition, the “Z.LYZ.NS (standard z score)” value is 0.820 in assay [1] (dose 0.08 uM), 0.474 in assay [1] (dose 0.40 uM), −0.029 in assay [1] (dose 2.00 uM) and 0.877 in assay [1] (dose 10.00 uM). Moreover, the Dose.FC.CTG in the assay with ENR+CD organoids (dose 0.08 uM) was 0.104 log2 fold change; with ENR+CD organoids (dose 0.40 uM), −0.009 log2 fold change; with ENR+CD organoids (dose 2.00 uM), −0.768 log2 fold change; in the assay on ENR+CD organoids (dose 10.00 uM) it was −0.001 log2 fold change. Also, the “Z.CTG (standard z score)” value is given as 0.249 in the assay with ENR+CD organoids (dose 0.08 uM), −0.022 with ENR+CD organoids (dose 0.40 uM), −1.834 in the assay with ENR+CD organoids (dose 2.00 uM) and −0.003 with ENR+CD organoids (dose 10.00 uM). The Dose.FC.LYZ.S in assay [2] (dose 0.08 uM) is 0.168 log2 fold change; in assay [2] (dose 0.40 uM) it was 0.130 log2 fold change; in assay [2] (dose 2.00 uM), −0.038 log2 fold change; in assay [2] (dose 10.00 uM), 0.050 log2 fold change.
On to `C[C@H](NC(=O)Cc1cc(F)cc(F)c1)C(=O)N[C@@H]1C(=O)N(C)c2ccccc2-c2ccccc21` [YO-01027], for which the Dose.FC.LYZ.NS in assay [1] (dose 0.08 uM) is 0.051 log2 fold change; in assay [1] (dose 0.40 uM) it was 0.085 log2 fold change; in assay [1] (dose 2.00 uM), −0.080 log2 fold change; in assay [1] (dose 10.00 uM), −0.157 log2 fold change. Besides, the “Z.LYZ.NS (standard z score)” value in assay [1] (dose 0.08 uM) is reported as 0.443; in assay [1] (dose 0.40 uM), 0.739; in assay [1] (dose 2.00 uM), −0.699; in assay [1] (dose 10.00 uM) it was −1.369. Further, the Dose.FC.CTG was 0.221 log2 fold change with ENR+CD organoids (dose 0.08 uM), −0.475 log2 fold change in the assay with ENR+CD organoids (dose 0.40 uM), −0.571 log2 fold change with ENR+CD organoids (dose 2.00 uM) and −1.032 log2 fold change in the assay on ENR+CD organoids (dose 10.00 uM). Besides, the “Z.CTG (standard z score)” value is given as 0.528 with ENR+CD organoids (dose 0.08 uM), −1.135 with ENR+CD organoids (dose 0.40 uM), −1.363 in the assay on ENR+CD organoids (dose 2.00 uM) and −2.464 with ENR+CD organoids (dose 10.00 uM). Moreover, the Dose.FC.LYZ.S in assay [2] (dose 0.08 uM) was 0.105 log2 fold change; in assay [2] (dose 0.40 uM), −0.058 log2 fold change; in assay [2] (dose 2.00 uM) it was −0.020 log2 fold change; in assay [2] (dose 10.00 uM) it was −0.184 log2 fold change.
With `CCOC(=O)c1ccc(N2NC(=O)/C(=C/c3ccc([N+](=O)[O-])o3)C2=O)cc1` [PYR-41], the Dose.FC.LYZ.NS is listed as 0.150 log2 fold change in assay [1] (setting [3]), 0.089 log2 fold change in assay [1] (setting [4]), 0.065 log2 fold change in assay [1] (setting [5]) and 0.099 log2 fold change in assay [1] (setting [6]). The Z.LYZ.NS in assay [1] (dose 0.08 uM) is 1.305; in assay [1] (dose 0.40 uM), 0.777; in assay [1] (dose 2.00 uM), 0.568; in assay [1] (dose 10.00 uM) it was 0.861. Moreover, the Dose.FC.CTG was 0.255 log2 fold change with ENR+CD organoids (setting [3]), 0.319 log2 fold change with ENR+CD organoids (setting [4]), 0.161 log2 fold change in the assay with ENR+CD organoids (setting [5]) and 0.096 log2 fold change with ENR+CD organoids (setting [6]). Also, the Z.CTG in the assay with ENR+CD organoids (dose 0.08 uM) is reported as 0.609; with ENR+CD organoids (dose 0.40 uM), 0.762; in the assay on ENR+CD organoids (dose 2.00 uM) it was 0.385; with ENR+CD organoids (dose 10.00 uM), 0.229. The Dose.FC.LYZ.S in assay [2] (setting [3]) stood at 0.193 log2 fold change; in assay [2] (setting [4]) it was 0.076 log2 fold change; in assay [2] (setting [5]), 0.049 log2 fold change; in assay [2] (setting [6]), 0.129 log2 fold change.
For the molecule `O=C(Nc1ccccc1Br)N[C@@H]1CCN(c2ccc(C(F)(F)F)cn2)C1` [SB705498], the Dose.FC.LYZ.NS is listed as 0.074 log2 fold change in assay [1] (setting [3]), −0.050 log2 fold change in assay [1] (setting [4]), −0.001 log2 fold change in assay [1] (setting [5]) and −0.018 log2 fold change in assay [1] (setting [6]). Further, the Z.LYZ.NS in assay [1] (dose 0.08 uM) is recorded as 0.642; in assay [1] (dose 0.40 uM), −0.433; in assay [1] (dose 2.00 uM), −0.008; in assay [1] (dose 10.00 uM), −0.154. For the same molecule, the Dose.FC.CTG with ENR+CD organoids (setting [3]) is 0.133 log2 fold change; in the assay with ENR+CD organoids (setting [4]), −0.043 log2 fold change; with ENR+CD organoids (setting [5]), −0.004 log2 fold change; in the assay on ENR+CD organoids (setting [6]) it was −0.037 log2 fold change. The Z.CTG is given as 0.318 with ENR+CD organoids (dose 0.08 uM), −0.102 in the assay with ENR+CD organoids (dose 0.40 uM), −0.009 in the assay on ENR+CD organoids (dose 2.00 uM) and −0.089 in the assay with ENR+CD organoids (dose 10.00 uM). Besides, the Dose.FC.LYZ.S in assay [2] (setting [3]) is given as 0.094 log2 fold change; in assay [2] (setting [4]) it was 0.023 log2 fold change; in assay [2] (setting [5]), −0.030 log2 fold change; in assay [2] (setting [6]), −0.023 log2 fold change.
As for Maraviroc, the “Dose.FC.LYZ.NS (log2 fold change)” value in assay [1] (dose 0.08 uM) turned out to be 0.047; in assay [1] (dose 0.40 uM), 0.041; in assay [1] (dose 2.00 uM), 0.031; in assay [1] (dose 10.00 uM), 0.087. For the same molecule, the “Z.LYZ.NS (standard z score)” value in assay [1] (dose 0.08 uM) worked out at 0.411; in assay [1] (dose 0.40 uM), 0.358; in assay [1] (dose 2.00 uM) it was 0.269; in assay [1] (dose 10.00 uM), 0.759. Also, the “Dose.FC.CTG (log2 fold change)” value with ENR+CD organoids (dose 0.08 uM) is given as −0.084; in the assay with ENR+CD organoids (dose 0.40 uM) it was 0.079; with ENR+CD organoids (dose 2.00 uM), −0.009; in the assay with ENR+CD organoids (dose 10.00 uM) it was 0.139. The “Dose.FC.LYZ.S (log2 fold change)” value was determined as 0.054 in assay [2] (dose 0.08 uM), 0.195 in assay [2] (dose 0.40 uM), 0.005 in assay [2] (dose 2.00 uM) and 0.077 in assay [2] (dose 10.00 uM).
